{"source": "patent US8399497B2", "about": "“Thiazole derivatives and use thereof” (Merck Serono SA, priority 2005, dated 2013)", "target": "Human recombinant GST-PI3Kγ (Homo sapiens, UniProt P48736)", "sequence (P48736 whole entry)": "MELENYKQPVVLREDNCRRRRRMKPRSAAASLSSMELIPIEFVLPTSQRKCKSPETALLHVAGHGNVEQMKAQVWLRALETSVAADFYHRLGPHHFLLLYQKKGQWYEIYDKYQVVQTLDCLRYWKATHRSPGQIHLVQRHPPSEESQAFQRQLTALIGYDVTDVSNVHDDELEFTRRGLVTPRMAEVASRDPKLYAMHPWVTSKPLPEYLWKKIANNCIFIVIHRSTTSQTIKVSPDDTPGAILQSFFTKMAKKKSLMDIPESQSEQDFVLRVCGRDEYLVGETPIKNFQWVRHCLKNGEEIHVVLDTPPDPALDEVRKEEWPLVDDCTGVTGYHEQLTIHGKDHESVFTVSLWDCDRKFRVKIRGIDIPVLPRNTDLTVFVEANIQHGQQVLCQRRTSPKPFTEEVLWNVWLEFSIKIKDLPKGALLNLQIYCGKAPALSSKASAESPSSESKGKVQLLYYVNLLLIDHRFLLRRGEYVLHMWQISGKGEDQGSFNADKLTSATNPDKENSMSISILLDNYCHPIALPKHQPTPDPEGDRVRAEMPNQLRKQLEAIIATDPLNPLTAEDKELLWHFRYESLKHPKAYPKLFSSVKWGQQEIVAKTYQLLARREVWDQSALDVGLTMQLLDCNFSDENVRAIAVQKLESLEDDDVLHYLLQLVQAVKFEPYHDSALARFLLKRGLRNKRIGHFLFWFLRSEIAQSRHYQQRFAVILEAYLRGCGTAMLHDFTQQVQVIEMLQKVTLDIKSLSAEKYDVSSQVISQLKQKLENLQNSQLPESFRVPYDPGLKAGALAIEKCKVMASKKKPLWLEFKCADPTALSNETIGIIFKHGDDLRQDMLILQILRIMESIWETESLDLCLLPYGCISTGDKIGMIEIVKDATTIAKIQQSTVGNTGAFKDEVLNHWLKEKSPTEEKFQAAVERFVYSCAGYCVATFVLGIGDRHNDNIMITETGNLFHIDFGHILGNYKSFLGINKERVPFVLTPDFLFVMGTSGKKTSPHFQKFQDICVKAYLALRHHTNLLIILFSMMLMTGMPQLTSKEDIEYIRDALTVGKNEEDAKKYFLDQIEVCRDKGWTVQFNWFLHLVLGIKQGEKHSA", "assay": "High throughput PI3K lipid kinase assay (SPA, neomycin-coated beads)", "assay_type": "biochemical", "description": "a) High Throughput PI3K Lipid Kinase Assay (Binding Assay):\nThe efficacy of compounds of the invention in inhibiting the PI3K induced-lipid phosphorylation may be tested in the following binding assay.\nThe assay combines the scintillation proximity assay technology (SPA, Amersham) with the capacity of neomycin (a polycationic antibiotic) to bind phospholipids with high affinity and specificity. The Scintillation Proximity Assay is based on the properties of weakly emitting isotopes (such as ^3H, ^125I, ^33P). Coating SPA beads with neomycin allows the detection of phosphorylated lipid substrates after incubation with recombinant PI3K and radioactive ATP in the same well, by capturing the radioactive phospholipids to the SPA beads through their specific binding to neomycin.\nTo a 384 wells MTP containing 5 μl of the test compound of Formula (I) (solubilized in 6% DMSO; to yield a concentration of 100, 30, 10, 3, 1, 0.3, 0.1, 0.03, 0.01, 01 μM of the test compound), the following assay components are added. 1) 5 μl (58 ng) of Human recombinant GST-PI3Kγ (in Hepes 40 mM, pH 7.4, DTT 1 mM and ethylenglycol 5%) 2) 10 μl of lipid micelles and 3) 10 μl of Kinase buffer ([^33P]γ-ATP 45 μM/60 nCi, MgCl2 30 mM, DTT 1 mM, β-Glycerophosphate 1 mM, Na3VO4 100 μM, Na Cholate 0.3%, in Hepes 40 mM, pH 7.4). After incubation at room temperature for 180 minutes, with gentle agitation, the reaction is stopped by addition of 60 μl of a solution containing 100 μg of neomycin-coated PVT SPA beads in PBS containing ATP 10 mM and EDTA 5 mM. The assay is further incubated at room temperature for 60 minutes with gentle agitation to allow binding of phospholipids to neomycin-SPA beads. After precipitation of the neomycin-coated PVT SPA beads for 5 minutes at 1500×g, radioactive PtdIns(3)P is quantified by scintillation counting in a Wallac MicroBeta™ plate counter.\nThe values indicated in Table II below refer to the IC50 (μM) with respect to PI3Kγ, i.e. the amount necessary to achieve 50% inhibition of said target. Said values show a considerable inhibitory potency of thiazole compounds with regard to PI3Kγ."}
{"smiles": "CC(=O)Nc1nc(C)c(-c2ccc(S(=O)(=O)N(C)C)s2)s1", "note": "[Example 18, N-(5-{5-[(dimethylamino)sulfonyl]-2-thienyl}-4-methyl-1,3-thiazol-2-yl)acetamide]", "values": [{"measurement": "IC50", "result": 105, "unit": "nM"}]}
{"smiles": "CC(=O)Nc1nc(C)c(-c2ccc(S(=O)(=O)NCC3COC(C)(C)O3)s2)s1", "note": "(stereo not drawn) [Example 14, N-{5-[5-({[(2,2-dimethyl-1,3-dioxolan-4-yl)methyl]amino}sulfonyl)-2-thienyl]-4-methyl-1,3-thiazol-2-yl}acetamide]", "values": [{"measurement": "IC50", "result": 198, "unit": "nM"}]}
{"smiles": "CC(=O)Nc1nc(C)c(-c2ccc(S(=O)(=O)N3CCNCC3)s2)s1", "note": "[Example 11, N-{4-methyl-5-[5-(piperazin-1-ylsulfonyl)-2-thienyl]-1,3-thiazol-2-yl}acetamide]", "values": [{"measurement": "IC50", "result": 200, "unit": "nM"}]}
{"smiles": "CC(=O)Nc1nc(C)c(-c2ccc(S(=O)(=O)NCC(O)CO)s2)s1", "note": "(stereo not drawn) [Example 17, N-[5-(5-{[(2,3-dihydroxypropyl)amino]sulfonyl}-2-thienyl)-4-methyl-1,3-thiazol-2-yl]acetamide]", "values": [{"measurement": "IC50", "result": 71, "unit": "nM"}]}
{"smiles": "CC(=O)NCCNS(=O)(=O)c1ccc(-c2sc(NC(C)=O)nc2C)s1", "note": "[Example 13, N-{5-[5-({[2-(acetylamino)ethyl]amino}sulfonyl)-2-thienyl]-4-methyl-1,3-thiazol-2-yl}acetamide]", "values": [{"measurement": "IC50", "result": 109, "unit": "nM"}]}
{"smiles": "CC(=O)Nc1nc(C)c(-c2csc(S(=O)(=O)N3CCNCC3)c2)s1", "note": "[Example 26, N-{4-methyl-5-[5-(piperazin-1-ylsulfonyl)-3-thienyl]-1,3-thiazol-2-yl}acetamide]", "values": [{"measurement": "IC50", "result": 67, "unit": "nM"}]}
{"smiles": "CC(=O)Nc1nc(C)c(-c2ccc(S(=O)(=O)N3CCN(C)CC3)s2)s1", "note": "[Example 8, N-(4-methyl-5-{5-[(4-methylpiperazin-1-yl)sulfonyl]-2-thienyl}-1,3-thiazol-2-yl)acetamide]", "values": [{"measurement": "IC50", "result": 170, "unit": "nM"}]}
{"smiles": "CC(=O)Nc1nc(C)c(-c2csc(S(=O)(=O)NC3CCN(C)CC3)c2)s1", "note": "[Example 28, N-[4-methyl-5-(5-{[(1-methylpiperidin-4-yl)amino]sulfonyl}-3-thienyl)-1,3-thiazol-2-yl]acetamide]", "values": [{"measurement": "IC50", "result": 78, "unit": "nM"}]}
{"smiles": "CNC(=O)CNS(=O)(=O)c1ccc(-c2sc(NC(C)=O)nc2C)s1", "note": "[Example 12, N~2~-({5-[2-(acetylamino)-4-methyl-1,3-thiazol-5-yl]-2-thienyl}sulfonyl)-N~1~-methylglycinamide]", "values": [{"measurement": "IC50", "result": 522, "unit": "nM"}]}
{"smiles": "CC(=O)Nc1nc(C)c(-c2ccc(S(=O)(=O)N[C@@H](CO)C(=O)O)s2)s1", "note": "[Example 16, N-({5-[2-(acetylamino)-4-methyl-1,3-thiazol-5-yl]-2-thienyl}sulfonyl)serine]", "values": [{"measurement": "IC50", "result": 373, "unit": "nM"}]}
{"smiles": "CC(=O)Nc1nc(C)c(-c2csc(S(=O)(=O)NCCN3CCOCC3)c2)s1", "note": "[Example 24, N-[4-methyl-5-(5-{[(2-morpholin-4-ylethyl)amino]sulfonyl}-3-thienyl)-1,3-thiazol-2-yl]acetamide]", "values": [{"measurement": "IC50", "result": 16, "unit": "nM"}]}
{"smiles": "COC(=O)CCCC(=O)Nc1nc(C)c(-c2ccc(S(=O)(=O)NCCN3CCOCC3)s2)s1", "note": "[Example 7, methyl 5-{[4-methyl-5-(5-{[(2-morpholin-4-ylethyl)amino]sulfonyl}-2-thienyl)-1,3-thiazol-2-yl]amino}-5-oxopentanoate]", "values": [{"measurement": "IC50", "result": 1200, "unit": "nM"}]}
{"smiles": "CC(=O)Nc1nc(C)c(-c2ccc(S(=O)(=O)N3CCN(C(C)=O)CC3)s2)s1", "note": "[Example 2, N-(5-{5-[(4-acetylpiperazin-1-yl)sulfonyl]-2-thienyl}-4-methyl-1,3-thiazol-2-yl)acetamide]", "values": [{"measurement": "IC50", "result": 396, "unit": "nM"}]}
{"smiles": "CC(=O)Nc1nc(C)c(-c2ccc(S(=O)(=O)N(C)CCN(C)C)s2)s1", "note": "[Example 5, N-[5-(5-{[[2-(dimethylamino)ethyl](methyl)amino]sulfonyl}-2-thienyl)-4-methyl-1,3-thiazol-2-yl]acetamide]", "values": [{"measurement": "IC50", "result": 20, "unit": "nM"}]}
{"smiles": "CC(=O)Nc1nc(C)c(-c2ccc(S(=O)(=O)NC3CCN(C)CC3)s2)s1", "note": "[Example 4, N-[4-methyl-5-(5-{[(1-methylpiperidin-4-yl)amino]sulfonyl}-2-thienyl)-1,3-thiazol-2-yl]acetamide]", "values": [{"measurement": "IC50", "result": 298, "unit": "nM"}]}
